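Results reflect a 48-hour exposure of cells in 96-well plates to compound at five concentrations. GI50 marks 50% less growth. At the TGI there is no net growth.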
What was measured:
Assay in all cases: inhibition of tumour cell growth, NCI panel, 48 h
CAKI-1 renal = tested on: CAKI-1 renal
CCRF-CEM leukemia = tested on: CCRF-CEM leukemia
SF-295 CNS = tested on: SF-295 CNS
HOP-62 NSCLC = tested on: HOP-62 NSCLC
PC-3 prostate = tested on: PC-3 prostate
MALME-3M melanoma = tested on: MALME-3M melanoma
SK-OV-3 ovarian = tested on: SK-OV-3 ovarian
U251 CNS = tested on: U251 CNS
MDA-MB-435 = tested on: MDA-MB-435
T-47D breast = tested on: T-47D breast
UACC-62 melanoma = tested on: UACC-62 melanoma
SK-MEL-5 melanoma = tested on: SK-MEL-5 melanoma
MDA-MB-231 breast = tested on: MDA-MB-231 breast
OVCAR-5 ovarian = tested on: OVCAR-5 ovarian
COLO 205 colon = tested on: COLO 205 colon
SK-MEL-2 melanoma = tested on: SK-MEL-2 melanoma
SN12C renal = tested on: SN12C renal
KM12 colon = tested on: KM12 colon
HOP-92 NSCLC = tested on: HOP-92 NSCLC
EKVX NSCLC = tested on: EKVX NSCLC
SF-539 CNS = tested on: SF-539 CNS
HCT-15 colon = tested on: HCT-15 colon
OVCAR-3 ovarian = tested on: OVCAR-3 ovarian
BT-549 breast = tested on: BT-549 breast
MOLT-4 leukemia = tested on: MOLT-4 leukemia
DU-145 prostate = tested on: DU-145 prostate
NCI-H460 lung = tested on: NCI-H460 lung
NCI-H522 lung = tested on: NCI-H522 lung
HS 578T breast = tested on: HS 578T breast
SK-MEL-28 melanoma = tested on: SK-MEL-28 melanoma
NCI-H226 lung = tested on: NCI-H226 lung
SNB-19 CNS = tested on: SNB-19 CNS
UO-31 renal = tested on: UO-31 renal
HL-60(TB) leukemia = tested on: HL-60(TB) leukemia
M14 melanoma = tested on: M14 melanoma
UACC-257 melanoma = tested on: UACC-257 melanoma
SF-268 CNS = tested on: SF-268 CNS
OVCAR-4 ovarian = tested on: OVCAR-4 ovarian
SNB-75 CNS = tested on: SNB-75 CNS
HCT-116 colon = tested on: HCT-116 colon
RPMI-8226 leukemia = tested on: RPMI-8226 leukemia
TK-10 renal = tested on: TK-10 renal
K-562 leukemia = tested on: K-562 leukemia
HT29 colon = tested on: HT29 colon
SW-620 colon = tested on: SW-620 colon
LOX IMVI melanoma = tested on: LOX IMVI melanoma
NCI/ADR-RES ovarian = tested on: NCI/ADR-RES ovarian
RXF 393 renal = tested on: RXF 393 renal
HCC-2998 colon = tested on: HCC-2998 colon
SR leukemia = tested on: SR leukemia
A549 NSCLC = tested on: A549 NSCLC
OVCAR-8 ovarian = tested on: OVCAR-8 ovarian
A498 renal = tested on: A498 renal
ACHN renal = tested on: ACHN renal
MCF7 breast = tested on: MCF7 breast
IGROV1 ovarian = tested on: IGROV1 ovarian
NCI-H23 lung = tested on: NCI-H23 lung
786-0 renal = tested on: 786-0 renal

## CC(C)c1ccc(/C=N/N=C(N)N)cc1
CAKI-1 renal
  GI50: 6.31 µM
  TGI: 22 µM
CCRF-CEM leukemia
  GI50: 4.33 µM
  TGI: 47.5 µM
SF-295 CNS
  GI50: 8.13 µM
  TGI: 22.4 µM
HOP-62 NSCLC
  GI50: 4.61 µM
  TGI: 17.9 µM
PC-3 prostate
  GI50: 4.25 µM
  TGI: 18.6 µM
MALME-3M melanoma
  GI50: 5.56 µM
  TGI: 21.1 µM
SK-OV-3 ovarian
  GI50: 3.24 µM
  TGI: 13 µM
U251 CNS
  GI50: 4.63 µM
  TGI: 17 µM
MDA-MB-435
  GI50: 1.63 µM
  TGI: 4.72 µM
T-47D breast
  GI50: 2.03 µM
  TGI: 5.53 µM
UACC-62 melanoma
  GI50: 7.73 µM
  TGI: 21.3 µM
SK-MEL-5 melanoma
  GI50: 2.54 µM
  TGI: 8.16 µM
MDA-MB-231 breast
  GI50: 7.39 µM
  TGI: 21.5 µM
OVCAR-5 ovarian
  GI50: 12.9 µM
  TGI: 30.2 µM
COLO 205 colon
  GI50: 1.72 µM
  TGI: 3.33 µM
SK-MEL-2 melanoma
  GI50: 2.64 µM
  TGI: 5.61 µM
SN12C renal
  GI50: 6.35 µM
  TGI: 20.4 µM
KM12 colon
  GI50: 3.3 µM
  TGI: 11.6 µM
HOP-92 NSCLC
  GI50: 1.35 µM
  TGI: 7.27 µM
EKVX NSCLC
  GI50: 5.33 µM
  TGI: 24.4 µM
SF-539 CNS
  GI50: 11.6 µM
  TGI: 25.3 µM
HCT-15 colon
  GI50: 4.19 µM
  TGI: 16.8 µM
OVCAR-3 ovarian
  GI50: 3.5 µM
  TGI: 11.6 µM
BT-549 breast
  GI50: 13.2 µM
  TGI: 30 µM
MOLT-4 leukemia
  GI50: 5.17 µM
  TGI: 32.6 µM
DU-145 prostate
  GI50: 11.2 µM
  TGI: 23.8 µM
NCI-H460 lung
  GI50: 3.89 µM
  TGI: 14.4 µM
NCI-H522 lung
  GI50: 3.22 µM
  TGI: 12.9 µM
HS 578T breast
  GI50: 11.5 µM
  TGI: 36.5 µM
SK-MEL-28 melanoma
  GI50: 8.41 µM
  TGI: 21 µM
NCI-H226 lung
  GI50: 12.2 µM
  TGI: 26.3 µM
SNB-19 CNS
  GI50: 4.77 µM
  TGI: 17.4 µM
UO-31 renal
  GI50: 10.3 µM
  TGI: 22.3 µM
HL-60(TB) leukemia
  GI50: 4.36 µM
  TGI: 11.3 µM
M14 melanoma
  GI50: 2.02 µM
  TGI: 4.2 µM
UACC-257 melanoma
  GI50: 8.74 µM
  TGI: 24.1 µM
SF-268 CNS
  TGI: 25.1 µM
OVCAR-4 ovarian
  GI50: 10.3 µM
  TGI: 23.2 µM
SNB-75 CNS
  GI50: 5.68 µM
  TGI: 26 µM
HCT-116 colon
  GI50: 3.34 µM
  TGI: 11.8 µM
RPMI-8226 leukemia
  GI50: 3.6 µM
  TGI: 16.4 µM
TK-10 renal
  GI50: 12.9 µM
  TGI: 26.4 µM
K-562 leukemia
  GI50: 4.16 µM
  TGI: 16.2 µM
HT29 colon
  GI50: 3.19 µM
  TGI: 9.65 µM
SW-620 colon
  GI50: 2.9 µM
  TGI: 11.6 µM
LOX IMVI melanoma
  GI50: 3.49 µM
  TGI: 14.7 µM
NCI/ADR-RES ovarian
  GI50: 6.33 µM
  TGI: 23.2 µM
RXF 393 renal
  GI50: 3.8 µM
  TGI: 16.6 µM
HCC-2998 colon
  GI50: 2.04 µM
  TGI: 4.78 µM
SR leukemia
  GI50: 3.31 µM
  TGI: 12.7 µM
A549 NSCLC
  GI50: 4.91 µM
  TGI: 18.8 µM
OVCAR-8 ovarian
  GI50: 10.8 µM
  TGI: 28.3 µM
A498 renal
  GI50: 11.3 µM
  TGI: 23.8 µM
ACHN renal
  GI50: 11.7 µM
  TGI: 25.4 µM
MCF7 breast
  GI50: 2.76 µM
  TGI: 10.1 µM
IGROV1 ovarian
  GI50: 11 µM
  TGI: 25.8 µM
NCI-H23 lung
  GI50: 3.96 µM
  TGI: 19.7 µM
786-0 renal
  GI50: 12.4 µM
  TGI: 27.3 µM

Reference: PubChem BioAssay (NCI)
